Assay results: US10082496B2, “Targeting emopamil binding protein (EBP) with small molecules that induce an abnormal feedback response by lowering endogenous cholesterol biosynthesis” (Board of Regents of the University of Texas System, priority 2014, dated 2018)

Assays:
[1] = tested on: DLD-1; experiment: In vitro APC inhibition assay (MTT), DLD-1; type: cell-based; conditions: Homo sapiens
Protocol: (§1) The small molecule anti-cancer compounds were evaluated for the ability to inhibit the activity of APC in an in vitro assay.
(§2) Reagents required for the assay are: (3-[4,5-Dimethylthiazol-2-yl]-2,5-diphenyltetrazolium bromide; Thiazolyl blue; RPI corp., cat# M92050); RPMI-1640 or Medium of Choice (i.e. DMEM) without phenol red; 1M Hepes; 100 mM NaPyruvate; 1000× Gentamicin (50 mg/ml); 100× Penicillin/Streptomycin/Fungizone; 1×PBS; Triton X-100; 1N HCl and Isopropanol. To make the MTT solution (10×), MTT powder was dissolved into complete RPMI (or DMEM solution) to a final concentration of 5 mg/mL and was sterilized by filtration with a 0.2 μm filter. The MTT solubilization solution contained 10% Triton X-100, 0.1N and 80% isopropanol. MTT solution was diluted to 1× with complete medium at 12 mL per plate. The culture dishes (96 wells) were removed from the incubator and the media was discarded. […] The cells were removed from the incubator and the MTT solution was discarded.
(§3) Percent inhibition was determined relative to control reactions without inhibitor, and half maximal inhibitory concentration (IC50) values were determined using a standard four parameter fit to the inhibition data.

[2] = tested on: HCT-116; experiment: In vitro APC inhibition assay (MTT), HCT-116; type: cell-based; conditions: Homo sapiens, HCT-116, read-out: IC50 (nM) in HCT-116
Protocol: as §1
Reagents required for the assay are: (3-[4,5-Dimethylthiazol-2-yl]-2,5-diphenyltetrazolium bromide; Thiazolyl blue; RPI corp., cat# M92050); RPMI-1640 or Medium of Choice (i.e. DMEM) without phenol red; 1M Hepes; 100 mM NaPyruvate; 1000× Gentamicin (50 mg/ml); 100× Penicillin/Streptomycin/Fungizone; 1×PBS; Triton X-100; 1N HCl and Isopropanol. To make the MTT solution (10×), MTT powder was dissolved into complete RPMI (or DMEM solution) to a final concentration of 5 mg/mL and was sterilized by filtration with a 0.2 μm filter. The MTT solubilization solution contained 10% Triton X-100, 0.1N and 80% isopropanol. MTT solution was diluted to 1× with complete medium at 12 mL per plate. The culture dishes (96 wells) were removed from the incubator and the media was discarded. The plates were washed three times with 1×PBS. 100 μl of 1×MTT solution was added to each well and the plates were incubated in a tissue culture incubator for 2-4 hours, depending on the cell line. The cells were removed from the incubator and the MTT solution was discarded. 200 μl of 1×MTT solubilization solution was added to each well using a multi-channel pipetor and the cells were placed on an orbital shaker for 10 minutes. The results were read on a microtiter plate reader (absorbance=570 nm, reference=700 nm) and data was exported.
as §3

[3] = tested on: HT-29; experiment: In vitro APC inhibition assay (MTT), HT-29; type: cell-based; conditions: Homo sapiens
Protocol: as §1, §2, §3

[4] = tested on: DLD1 cells; experiment: Dose response studies in CRC line DLD1 (truncated APC); type: cell-based, human; conditions: varying doses
Protocol: These 14 compounds then were obtained commercially and their IC50 determined by performing dose response studies with half log dilution series at 12 concentration points in two authentic CRC lines: HCT116 (wt APC) and DLD1 (truncated APC).
DLD-1 cells normally are cultured in 10% serum medium, and they are rapidly shifted to 0.2% serum medium for dose response studies.

Compound | IC50 [2] | IC50 ([3]; HT-29, HT-29 (truncated APC)) | other results
C#CCC1CCN(C2CCN(S(=O)(=O)c3cccc(N=[N+]=[N-])c3)CC2)CC1 | – | – | IC50 ([1]; DLD-1, DLD-1 (truncated APC)): 1900 nM
Cc1nc(Cl)sc1S(=O)(=O)N1CCC(N2CCC(C)CC2)CC1 | > 10000 nM | – | –
Cc1cc(C)c(S(=O)(=O)N2CCC(N3CCCCC3)CC2)c(C)c1 | > 10000 nM | – | –
Cc1cc(C)c(S(=O)(=O)N2CCC(N3CCOCC3)CC2)c(C)c1 | > 10000 nM | – | –
Cc1cc(C)c(S(=O)(=O)N2CCC(N3CCC(c4ccccc4)CC3)CC2)c(C)c1 | > 10000 nM | – | –
Cc1cc(C)c(S(=O)(=O)N2CCC(N3CCC(CCC#N)CC3)CC2)c(C)c1 | > 10000 nM | – | –
CC1CCN(C2CCN(S(=O)(=O)c3ccc(C#N)cc3)CC2)CC1 | > 10000 nM | – | –
CC1CCN(C2CCN(S(=O)(=O)c3ccc(OC(F)F)cc3)CC2)CC1 | > 10000 nM | – | –
CC1CCN(C2CCN(S(=O)(=O)c3cccnc3)CC2)CC1 | > 10000 nM | 2200 nM | –
Cc1cc(C)c(S(=O)(=O)N2CCC(N3CCC(C)OC3)CC2)c(C)c1 (stereo not shown) | > 10000 nM | 61 nM | –
CC1CCN(C2CCN(S(=O)(=O)c3ccc4ncsc4c3)CC2)CC1 | > 10000 nM | 26 nM | IC50 ([1]; DLD-1, DLD-1 (truncated APC)): 38 nM
CC1CCN(C2CCN(S(=O)(=O)c3ccc(Br)cc3)CC2)CC1 | > 10000 nM | 1.2 nM | –
CC1CCN(C2CCN(S(=O)(=O)c3ccc(-c4ccccc4)cc3)CC2)CC1 | > 10000 nM | 234 nM | –
Cc1cc(C)c(S(=O)(=O)N2CCC(N3CCC(Cc4ccccc4)CC3)CC2)c(C)c1 | > 10000 nM | – | –
COc1ccc(Br)cc1S(=O)(=O)N1CCC(N2CCC(C)CC2)CC1 | > 10000 nM | – | –
CC1CCN(C2CCN(S(=O)(=O)c3ccc(-c4ccc(Cl)cc4)cc3)CC2)CC1 | > 10000 nM | 112 nM | –
COc1ccc(-c2ccc(S(=O)(=O)N3CCC(N4CCC(C)CC4)CC3)cc2)cc1 | > 10000 nM | 288 nM | –
CC1CCN(C2CCN(S(=O)(=O)c3ccc(Br)cc3OC(F)(F)F)CC2)CC1 | > 10000 nM | – | –

Compound | IC50 [2] | IC50 ([3]; HT-29, HT-29 (truncated APC)) | other results
C#CCC1CCN(C2CCN(S(=O)(=O)c3ccc(Br)cc3)CC2)CC1 | > 10000 nM | – | –
Cc1cc(C)c(S(=O)(=O)N2CCC(N3CC(C)CC(C)C3)CC2)c(C)c1 (stereo not shown) | > 10000 nM | 15 nM | –
Cc1cc(C)c(S(=O)(=O)N2CCC(N3CCC(C(C)C)CC3)CC2)c(C)c1 | > 10000 nM | – | –
CC1CCN(C2CCN(S(=O)(=O)c3cccc(Br)c3)CC2)CC1 | > 10000 nM | – | –
C[Si](C)(C)C#CCC1CCN(C2CCN(S(=O)(=O)c3ccc(Br)cc3)CC2)CC1 | > 10000 nM | – | IC50 ([3]; HT-29 (truncated APC)): 1.7 nM; IC50 ([1]; DLD-1 (truncated APC)): 2.9 nM
CC1CCN(C2CCN(S(=O)(=O)c3ccc(Cl)cc3)CC2)CC1 | > 10000 nM | 5.6 nM | –
Cc1ccc(S(=O)(=O)N2CCC(N3CCC(C)CC3)CC2)cc1 | > 10000 nM | 14 nM | –
CC1CCN(C2CCN(S(=O)(=O)c3ccc(Cl)c(Cl)c3)CC2)CC1 | > 10000 nM | – | –
C#CCC1CCN(C2CCN(S(=O)(=O)c3ccc(C(=O)c4ccccc4)cc3)CC2)CC1 | > 10000 nM | 5.2 nM | IC50 ([1]; DLD-1, DLD-1 (truncated APC)): 4.8 nM
CC1CCN(C2CCN(S(=O)(=O)c3ccccc3Br)CC2)CC1 | > 10000 nM | – | –
CC1CCN(C2CCN(S(=O)(=O)c3ccccc3-c3ccc(C(F)(F)F)cc3)CC2)CC1 | > 10000 nM | 57 nM | –
CC1CCN(C2CCN(S(=O)(=O)c3cccc(-c4ccccc4)c3)CC2)CC1 | > 10000 nM | – | –
COc1ccccc1-c1ccc(S(=O)(=O)N2CCC(N3CCC(C)CC3)CC2)cc1 | > 10000 nM | 19 nM | –
CC1CCN(C2CCN(S(=O)(=O)c3ccc(-c4ccccc4F)cc3)CC2)CC1 | > 10000 nM | – | –
CC(C(O)c1ccc(O)cc1)N1CCC(Cc2ccccc2)CC1 (stereo not shown) [Ifenprodil] | – | – | sensitivity of DLD-1 vs HCT-116 cells to EBP inhibitors (FIG. 10) [4]: selectively sensitive
COc1ccc2c(c1)CCC(c1ccccc1)=C2c1ccc(OCCN2CCCC2)cc1 [Nafoxidine] | – | – | sensitivity of DLD-1 vs HCT-116 cells to EBP inhibitors (FIG. 10) [4]: selectively sensitive
COc1ccc(S(=O)(=O)N2CCC(N3CCC(C)CC3)CC2)cc1 [drawing 83] | > 10000 nM | – | –
